Reference: patent US6552014B2, “Methods of inhibiting platelet activation with selective serotonin reuptake inhibitors” (HeartDrug Research, L.L.C., priority 1999, dated 2003)

What was measured:
GP IIIa = test: Flow cytometry of platelet antigen expression, platelet rich plasma; format: cell-based, human; details: PRP
Excerpt: For ex vivo assessment of the SSRIs effect on a PAM, a level of a PAM can be assessed by flow cytometry by first obtaining a sample that comprises platelets and then contacting the sample with a platelet activation agonist, such as phorbol myristate acetate (PMA), ADP (adenosine diphosphate), thrombin, collagen, and/or TRAP (thrombin receptor activating peptide), under conditions suitable for activation of platelets in the sample. The sample is in contact with the agonist preferably for a period of time effective to maximally activate the platelets. […] NDMS at 31.1, 64.1 or 143 ng./ml). Then one contacts or stains the samples with a composition that comprises an anti-PAM antibody e.g., having a fluorescent label, preferably in an amount in excess of that required to bind the PAM expressed on the platelets, under conditions suitable for the formation of labeled complexes between the anti-PAM antibody and activated platelets. Then the formation of the complex in the sample is determined (detected or measured). […] The blood-ACD mixture was centrifuged at 1000 r.p.m. for 10 minutes at room temperature. […] The PRP was then centrifuged at 3000 r.p.m. for 10 minutes. […] All cells were then divided into ten plastic capped tubes. Nine portions of washed platelets were incubated with 5 μfluorescein isothiocyanate (FITC)-conjugated antibodies in the dark at +4 °C for 30 minutes, and one part remained unstained and served as a negative control. Surface antigen expression was measured with monoclonal murine anti-human antibodies: CD9 (p24); CD41a (IIb/IIIa, aIIIbb3); CD42b (Ib); CD61(IIIa) (DAKO Corporation, Carpinteria Calif.); CD49b (VLA-2, or a2b1); CD62p (P-selectin); CD31 (PECAM-1); […] The instrument was calibrated daily with fluorescence beads (CaliBRITE; Becton Dickinson) and measured FITC-conjugated fluorescence intensity. All parameters were obtained using four decade logarithmic amplification. The data was collected and stored in list mode, and then analyzed using CELLQuest® (version 1.2.2) software. Procedures are described in detail in (Gurbel, P. […] Serebruany, V. […] Gurbel, P. A. et al., Coron Artery Dis 9: 451-456 (1998) and Serebruany, V. L. et al., Arterioscl Thromb Vasc Biol 19: 153-158 (1999)). The data in table 1 was obtained using the methods described herein, and in particular, in Examples 1 and 2. The levels of various PAMs were assess from samples of human volunteers.

GP IIb/IIIa = test: Whole blood flow cytometry; format: cell-based, human; details: for GP IIb/IIIa (mean) log fluorescence intensity / GP IIb/IIIa (peak) log fluorescence intensity: Whole Blood; for GPIIb/IIIa expression (FIG. 1), in words: sertraline 18.1, 44.7 or 85.3 ng/ml, NDMS 31.1, 64.1, 143.0 ng/ml; for GPIIb/IIIa expression (FIG. 7), in words: whole blood, post-coronary angioplasty patient, increasing concentrations
Excerpt: For ex vivo assessment of the SSRIs effect on a PAM, a level of a PAM can be assessed by flow cytometry by first obtaining a sample that comprises platelets and then contacting the sample with a platelet activation agonist, such as phorbol myristate acetate (PMA), ADP (adenosine diphosphate), thrombin, collagen, and/or TRAP (thrombin receptor activating peptide), under conditions suitable for activation of platelets in the sample. The sample is in contact with the agonist preferably for a period of time effective to maximally activate the platelets. […] Then one contacts or stains the samples with a composition that comprises an anti-PAM antibody e.g., having a fluorescent label, preferably in an amount in excess of that required to bind the PAM expressed on the platelets, under conditions suitable for the formation of labeled complexes between the anti-PAM antibody and activated platelets. Then the formation of the complex in the sample is determined (detected or measured).
Four cc of blood was collected in a tube, containing 2 cc of acid-citrate-dextrose (ACD) (7.3 g citric acid, 22.0 g sodium citrate×2H2O and 24.5 glucose in a total amount of 1000 mL distilled water) and mixed well. The buffer, TBS (10 mM Tris, 0.15 M NaCl, pH 7.4) and the following fluorescein isothiocyanate (FITC) conjugated monoclonal antibodies (PharMingen, San Diego, Calif. USA, and DAKO, Calif., USA) were removed from a refrigerator and allowed to warm at room temperature (RT): CD41 (IIb/IIIa), CD31 (PECAM-1), CD62p (P-selectin), CD51/61 (Vitronectin receptor). Six amber tubes (1.25 ml) were obtained and marked. One Eppendorf tube (1.5 ml) was labeled with “Dill WB”, Patient ID #, Initial and Date. The amber tubes and Eppendorf tube were placed in the rack. […] of TBS buffer was pipetted to the labeled Eppendorf tube. The patient's whole blood tube was inverted gently twice to mix. 50 μl of whole blood was pipetted to the “Dill WB” labeled Eppendorf tube. The Eppendorf tube was capped and the diluted whole blood was mixed by inverting the Eppendorf tube gently two times 50 μl of diluted whole blood was pipetted to each amber tube. 5 μl of appropriate antibody was pipetted to the bottom of the corresponding amber tube. The tubes were covered with aluminum foil and incubated at 4° C. for 30 minutes. After incubation, 400 μl of 2% buffered paraformaldehyde was added. To prepare 2% Paraformaldehyde:Dilute 1 part 10% paraformaldehyde with 4 parts TBS. This solution was stored at 4° C. for up to one week. The amber tubes were closed with a lid tightly and stored in a refrigerator at 4° C. until the flow cytometric analysis. The samples are analyzed on a Becton Dickinson FACScan flow cytometer. The instrument is set up to measure forward light scatter (FSC), and FITC fluorescence. All parameters are collected using four decade logarithmic amplification.
The data in table 1 was obtained using the methods described herein, and in particular, in Examples 1 and 2. The levels of various PAMs were assess from samples of human volunteers. […] Baseline levels of the PAMs were also obtained (without exposure to sertraline or NDMS).

[1] = healthy volunteers, desmethylsertraline 31.1 ng/ml
[2] = healthy volunteers, desmethylsertraline 64.2 ng/ml
[3] = healthy volunteers, desmethylsertraline 143 ng/ml
[4] = post-angioplasty patient on aspirin, desmethylsertraline 31.1 ng/ml
[5] = post-angioplasty patient on aspirin, desmethylsertraline 64.2 ng/ml
[6] = post-angioplasty patient on aspirin, desmethylsertraline 143 ng/ml
[7] = whole blood from a healthy volunteer
[8] = healthy volunteers, sertraline 18.1 ng/ml
[9] = healthy volunteers, sertraline 44.7 ng/ml
[10] = healthy volunteers, sertraline 85.3 ng/ml
[11] = post-angioplasty patient on aspirin, sertraline 18.1 ng/ml
[12] = post-angioplasty patient on aspirin, sertraline 44.7 ng/ml
[13] = post-angioplasty patient on aspirin, sertraline 85.3 ng/ml

Question: Which results are given for N[C@H]1CC[C@@H](c2ccc(Cl)c(Cl)c2)c2ccccc21 [Desmethyl sertraline, N-desmethylsertraline]?
Answer: GP IIIa (mean) log fluorescence intensity (GP IIIa; [1]): 981; GP IIIa (peak) log fluorescence intensity (GP IIIa; [1]): 913; GP IIIa (mean) log fluorescence intensity (GP IIIa; [2]): 1178; GP IIIa (mean) log fluorescence intensity (GP IIIa; [3]): 1182; GP IIIa (peak) log fluorescence intensity (GP IIIa; [3]): 1046; GP IIIa (mean) log fluorescence intensity (GP IIIa; [4]): 1235; GP IIIa (peak) log fluorescence intensity (GP IIIa; [4]): 1298; GP IIIa (peak) log fluorescence intensity (GP IIIa; [5]): 1144; GP IIIa (mean) log fluorescence intensity (GP IIIa; [6]): 1259; GP IIIa (peak) log fluorescence intensity (GP IIIa; [6]): 1219; GP IIb/IIIa (mean) log fluorescence intensity (GP IIb/IIIa; [1]): 346; GP IIb/IIIa (peak) log fluorescence intensity (GP IIb/IIIa; [1]): 340; GP IIb/IIIa (mean) log fluorescence intensity (GP IIb/IIIa; [2]): 403; GP IIb/IIIa (peak) log fluorescence intensity (GP IIb/IIIa; [2]): 355; GP IIb/IIIa (mean) log fluorescence intensity (GP IIb/IIIa; [3]): 314; GP IIb/IIIa (peak) log fluorescence intensity (GP IIb/IIIa; [3]): 264; GP IIb/IIIa (mean) log fluorescence intensity (GP IIb/IIIa; [4]): 277; GP IIb/IIIa (peak) log fluorescence intensity (GP IIb/IIIa; [4]): 268; GP IIb/IIIa (mean) log fluorescence intensity (GP IIb/IIIa; [5]): 219; GP IIb/IIIa (peak) log fluorescence intensity (GP IIb/IIIa; [5]): 245; GP IIb/IIIa (mean) log fluorescence intensity (GP IIb/IIIa; [6]): 242; GP IIb/IIIa (peak) log fluorescence intensity (GP IIb/IIIa; [6]): 232; GPIIb/IIIa expression, NDMS compared with sertraline (FIG. 1) (GP IIb/IIIa; [7]): more effectively decreased the expression of GPIIb/IIIa; GPIIb/IIIa expression (FIG. 1), in words (GP IIb/IIIa; [7]): dose dependent decrease in the expression; GPIIb/IIIa expression (FIG. 7), in words (GP IIb/IIIa): striking decreases in expression

Question: Which results are given for CN[C@H]1CC[C@@H](c2ccc(Cl)c(Cl)c2)c2ccccc21 [sertraline]?
Answer: GP IIIa (mean) log fluorescence intensity (GP IIIa; [8]): 1389; GP IIIa (peak) log fluorescence intensity (GP IIIa; [8]): 1197; GP IIIa (mean) log fluorescence intensity (GP IIIa; [9]): 1197; GP IIIa (peak) log fluorescence intensity (GP IIIa; [9]): 1084; GP IIIa (mean) log fluorescence intensity (GP IIIa; [10]): 816; GP IIIa (peak) log fluorescence intensity (GP IIIa; [10]): 704; GP IIIa (mean) log fluorescence intensity (GP IIIa; [11]): 1247; GP IIIa (peak) log fluorescence intensity (GP IIIa; [11]): 1114; GP IIIa (mean) log fluorescence intensity (GP IIIa; [12]): 1404; GP IIIa (peak) log fluorescence intensity (GP IIIa; [12]): 1370; GP IIIa (mean) log fluorescence intensity (GP IIIa; [13]): 1321; GP IIIa (peak) log fluorescence intensity (GP IIIa; [13]): 1310; GP IIb/IIIa (mean) log fluorescence intensity (GP IIb/IIIa; [8]): 479; GP IIb/IIIa (peak) log fluorescence intensity (GP IIb/IIIa; [8]): 418; GP IIb/IIIa (mean) log fluorescence intensity (GP IIb/IIIa; [9]): 476; GP IIb/IIIa (peak) log fluorescence intensity (GP IIb/IIIa; [9]): 437; GP IIb/IIIa (mean) log fluorescence intensity (GP IIb/IIIa; [10]): 498; GP IIb/IIIa (peak) log fluorescence intensity (GP IIb/IIIa; [10]): 437; GP IIb/IIIa (mean) log fluorescence intensity (GP IIb/IIIa; [11]): 252; GP IIb/IIIa (peak) log fluorescence intensity (GP IIb/IIIa; [11]): 266; GP IIb/IIIa (mean) log fluorescence intensity (GP IIb/IIIa; [12]): 230; GP IIb/IIIa (peak) log fluorescence intensity (GP IIb/IIIa; [12]): 244; GP IIb/IIIa (mean) log fluorescence intensity (GP IIb/IIIa; [13]): 198; GP IIb/IIIa (peak) log fluorescence intensity (GP IIb/IIIa; [13]): 217; GPIIb/IIIa expression (FIG. 1), in words (GP IIb/IIIa; [7]): dose dependent decrease in the expression; GPIIb/IIIa expression (FIG. 7), in words (GP IIb/IIIa): striking decreases in expression
